Data: patent US12723063B2, “GIPR-agonist compounds” (Eli Lilly and Company, priority 2019, dated 2026)
*1 amine or outer side, *2 acyl side, *3 side chain or, on linkers, in order; H or OH if unused. Where a SMILES comes first, the peptide text is derived from it. Side-chain parts run from the residue outwards. [ ]: non-standard residue; d: D form. The star is where a group is joined. C20 diacid = O=C(O)CCCCCCCCCCCCCCCCCCC(=O)*; αMePhe(2-F) = C[C@](N)(Cc1ccccc1F)C(=O)O; γGlu = O=C(O)[C@H](CCC(=O)[*:2])N[*:1]; αMeF = C[C@](N)(Cc1ccccc1)C(=O)O; 4Pal = N[C@@H](Cc1ccncc1)C(=O)O; αMeL = CC(C)C[C@](C)(N)C(=O)O; AEEA = NCCOCCOCC(=O)O; Aib = CC(C)(N)C(=O)O

Legend:
Experiment in all cases: cAMP functional assay (HTRF) in HEK293 cells in presence of 0.1% casein
Assay type in all cases: cell-based
[1] = target: T1, human glucose-dependent insulinotropic peptide receptor (GIPR) (Homo sapiens, UniProt P48546); settings: HEK293 cells expressing human GIPR, geometric mean, read-out: hGIPR cAMP Rel EC50 nM (SEM, n)
T1 construct: expressed in transfected cells; host or cells: HEK293
T1 sequence (P48546 22-466): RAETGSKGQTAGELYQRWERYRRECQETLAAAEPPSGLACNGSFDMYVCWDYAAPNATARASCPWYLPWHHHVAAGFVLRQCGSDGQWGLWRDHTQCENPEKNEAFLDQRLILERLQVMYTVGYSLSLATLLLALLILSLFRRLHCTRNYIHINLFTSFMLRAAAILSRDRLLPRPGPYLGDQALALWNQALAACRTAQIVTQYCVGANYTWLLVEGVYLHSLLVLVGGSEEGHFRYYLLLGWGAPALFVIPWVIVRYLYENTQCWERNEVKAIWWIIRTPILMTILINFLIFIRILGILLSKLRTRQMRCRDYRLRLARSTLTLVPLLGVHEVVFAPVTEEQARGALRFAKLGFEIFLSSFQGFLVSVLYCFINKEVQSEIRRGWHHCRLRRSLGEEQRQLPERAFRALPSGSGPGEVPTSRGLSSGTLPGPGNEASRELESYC

[2] = target: T2, human GLP-1 receptor (GLP-1R) (Homo sapiens, UniProt P43220); settings: HEK293 cells expressing human GLP-1R, geometric mean, read-out: hGLP1R cAMP Rel EC50 nM (SEM, n)
T2 construct: expressed in transfected cells; host or cells: HEK293

[3] = target: T3, human glucagon receptor (GcgR) (Homo sapiens, UniProt P47871); settings: HEK293 cells expressing human GcgR, geometric mean, read-out: hGcgR cAMP Rel EC50 nM (SEM, n)
T3 construct: expressed in transfected cells; host or cells: HEK293
T3 sequence (P47871 26-477): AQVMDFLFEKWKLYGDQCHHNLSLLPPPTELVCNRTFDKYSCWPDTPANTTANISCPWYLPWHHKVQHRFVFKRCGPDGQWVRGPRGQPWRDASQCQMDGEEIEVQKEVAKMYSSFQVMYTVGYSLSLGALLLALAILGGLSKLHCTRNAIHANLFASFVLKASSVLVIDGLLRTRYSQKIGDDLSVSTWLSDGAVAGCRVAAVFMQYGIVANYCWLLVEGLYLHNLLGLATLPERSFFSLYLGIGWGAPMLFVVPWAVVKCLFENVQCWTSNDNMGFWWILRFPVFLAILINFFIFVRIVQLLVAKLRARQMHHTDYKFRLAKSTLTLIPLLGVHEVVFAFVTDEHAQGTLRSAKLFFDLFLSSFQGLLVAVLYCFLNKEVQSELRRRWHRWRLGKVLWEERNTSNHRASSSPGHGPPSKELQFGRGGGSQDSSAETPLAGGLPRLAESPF

T2 sequence (P43220 24-463): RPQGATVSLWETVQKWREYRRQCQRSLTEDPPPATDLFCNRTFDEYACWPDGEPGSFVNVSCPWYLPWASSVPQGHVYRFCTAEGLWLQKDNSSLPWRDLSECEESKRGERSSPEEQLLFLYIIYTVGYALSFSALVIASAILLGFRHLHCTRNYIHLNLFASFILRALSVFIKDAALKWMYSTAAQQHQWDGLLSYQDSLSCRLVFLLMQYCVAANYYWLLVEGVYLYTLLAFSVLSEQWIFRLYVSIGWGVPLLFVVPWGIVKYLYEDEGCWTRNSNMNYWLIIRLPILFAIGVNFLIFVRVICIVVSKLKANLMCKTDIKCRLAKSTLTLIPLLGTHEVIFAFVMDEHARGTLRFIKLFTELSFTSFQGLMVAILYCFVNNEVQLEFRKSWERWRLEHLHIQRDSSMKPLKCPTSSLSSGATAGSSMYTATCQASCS

Row | SMILES | EC50 [1] [nM] | EC50 [2] [nM] | EC50 [3] [nM]
1 | CC[C@H](C)[C@H](NC(=O)[C@H](CO)NC(=O)[C@H](Cc1ccc(O)cc1)NC(=O)[C@H](CC(=O)O)NC(=O)[C@H](CO)NC(=O)[C@@H](NC(=O)[C@](C)(Cc1ccccc1F)NC(=O)[C@@H](NC(=O)CNC(=O)[C@H](CCC(=O)O)NC(=O)C(C)(C)NC(=O)[C@@H](N)Cc1ccc(O)cc1)[C@@H](C)O)[C@@H](C)CC)C(=O)N[C@@H](C)C(=O)N[C@@H](CC(C)C)C(=O)N[C@@H](CC(=O)O)C(=O)N[C@@H](CCCCN)C(=O)N[C@@H](CCCCNC(=O)COCCOCCNC(=O)COCCOCCNC(=O)CC[C@H](NC(=O)CCCCCCCCCCCCCCCCCCC(=O)O)C(=O)O)C(=O)N[C@@H](Cc1c[nH]cn1)C(=O)N[C@@H](CCC(N)=O)C(=O)NC(C)(C)C(=O)N[C@@H](CC(=O)O)C(=O)N[C@@H](Cc1ccccc1)C(=O)N[C@H](C(=O)N[C@@H](CCC(=O)O)C(=O)N[C@@H](Cc1ccc(O)cc1)C(=O)N[C@@H](CC(C)C)C(=O)N[C@@H](CC(C)C)C(=O)N[C@@H](CCC(=O)O)C(=O)NCC(=O)NCC(=O)N1CCC[C@H]1C(=O)N[C@@H](CO)C(=O)N[C@@H](CO)C(=O)NCC(=O)N[C@@H](C)C(=O)N1CCC[C@H]1C(=O)N1CCC[C@H]1C(=O)N1CCC[C@H]1C(=O)N[C@@H](CO)C(N)=O)C(C)C [Example 37] (H-Y[Aib]EGT[αMePhe(2-F)]ISDYSIALDKK([AEEA-AEEA-γGlu-C20 diacid])HQ[Aib]DFVEYLLEGGPSSGAPPPS-NH2) | 0.036 | 61.1 | > 5000
2 | CC[C@H](C)[C@H](NC(=O)[C@H](Cc1ccccc1)NC(=O)[C@@H](NC(=O)CNC(=O)[C@H](CCC(=O)O)NC(=O)C(C)(C)NC(=O)[C@@H](N)Cc1ccc(O)cc1)[C@@H](C)O)C(=O)N[C@@H](CO)C(=O)N[C@@H](CC(=O)O)C(=O)N[C@@H](Cc1ccc(O)cc1)C(=O)N[C@@H](CO)C(=O)N[C@H](C(=O)N[C@@](C)(CC(C)C)C(=O)N[C@@H](CC(C)C)C(=O)N[C@@H](CC(=O)O)C(=O)N[C@@H](CCCCN)C(=O)N[C@@H](CCCCNC(=O)COCCOCCNC(=O)COCCOCCNC(=O)CC[C@H](NC(=O)CCCCCCCCCCCCCCCCCCC(=O)O)C(=O)O)C(=O)N[C@@H](Cc1c[nH]cn1)C(=O)N[C@@H](CCC(N)=O)C(=O)NC(C)(C)C(=O)N[C@@H](CC(=O)O)C(=O)N[C@@H](Cc1ccccc1)C(=O)N[C@H](C(=O)N[C@@H](CCC(=O)O)C(=O)N[C@@H](Cc1ccc(O)cc1)C(=O)N[C@@H](CC(C)C)C(=O)N[C@@H](CC(C)C)C(=O)N[C@@H](C)C(=O)NCC(=O)NCC(=O)N1CCC[C@H]1C(=O)N[C@@H](CO)C(=O)N[C@@H](CO)C(=O)NCC(=O)N[C@@H](C)C(=O)N1CCC[C@H]1C(=O)N1CCC[C@H]1C(=O)N1CCC[C@H]1C(=O)N[C@@H](CO)C(N)=O)C(C)C)[C@@H](C)CC [Example 53] (H-Y[Aib]EGTFISDYSI[αMeL]LDKK([AEEA-AEEA-γGlu-C20 diacid])HQ[Aib]DFVEYLLAGGPSSGAPPPS-NH2) | 0.0194 | > 5000 | 344
3 | CC[C@H](C)[C@H](NC(=O)[C@H](CO)NC(=O)[C@H](Cc1ccc(O)cc1)NC(=O)[C@H](CC(=O)O)NC(=O)[C@H](CO)NC(=O)[C@@H](NC(=O)[C@](C)(Cc1ccccc1)NC(=O)[C@@H](NC(=O)CNC(=O)[C@H](CCC(=O)O)NC(=O)C(C)(C)NC(=O)[C@@H](N)Cc1ccc(O)cc1)[C@@H](C)O)[C@@H](C)CC)C(=O)N[C@@](C)(CC(C)C)C(=O)N[C@@H](CC(C)C)C(=O)N[C@@H](CC(=O)O)C(=O)N[C@@H](CCCCN)C(=O)N[C@@H](CCCCNC(=O)COCCOCCNC(=O)COCCOCCNC(=O)CC[C@H](NC(=O)CCCCCCCCCCCCCCCCCCC(=O)O)C(=O)O)C(=O)N[C@@H](Cc1c[nH]cn1)C(=O)N[C@@H](CCC(N)=O)C(=O)NC(C)(C)C(=O)N[C@@H](CCC(=O)O)C(=O)N[C@@H](Cc1ccccc1)C(=O)N[C@H](C(=O)N[C@@H](CCC(=O)O)C(=O)N[C@@H](Cc1ccncc1)C(=O)N[C@@H](CC(C)C)C(=O)N[C@@H](CC(C)C)C(=O)N[C@@H](C)C(=O)N[C@@H](CCC(N)=O)C(=O)NCC(=O)N1CCC[C@H]1C(=O)N[C@@H](CO)C(=O)N[C@@H](CO)C(=O)NCC(=O)N[C@@H](C)C(=O)N1CCC[C@H]1C(=O)N1CCC[C@H]1C(=O)N1CCC[C@H]1C(=O)N[C@@H](CO)C(N)=O)C(C)C [Example 60] (H-Y[Aib]EGT[αMeF]ISDYSI[αMeL]LDKK([AEEA-AEEA-γGlu-C20 diacid])HQ[Aib]EFVE[4Pal]LLAQGPSSGAPPPS-NH2) | 0.0369 | 71 | > 5000
4 | CC[C@H](C)[C@H](NC(=O)[C@H](CO)NC(=O)[C@H](Cc1ccc(O)cc1)NC(=O)[C@H](CC(=O)O)NC(=O)[C@H](CO)NC(=O)[C@@H](NC(=O)[C@](C)(Cc1ccccc1)NC(=O)[C@@H](NC(=O)CNC(=O)[C@H](CCC(=O)O)NC(=O)C(C)(C)NC(=O)[C@@H](N)Cc1ccc(O)cc1)[C@@H](C)O)[C@@H](C)CC)C(=O)N[C@@H](C)C(=O)N[C@@H](CC(C)C)C(=O)N[C@@H](CC(=O)O)C(=O)N[C@@H](CCCCN)C(=O)N[C@@H](CCCCNC(=O)COCCOCCNC(=O)COCCOCCNC(=O)CC[C@H](NC(=O)CCCCCCCCCCCCCCCCCCC(=O)O)C(=O)O)C(=O)N[C@@H](Cc1c[nH]cn1)C(=O)N[C@@H](CCC(N)=O)C(=O)NC(C)(C)C(=O)N[C@@H](CC(=O)O)C(=O)N[C@@H](Cc1ccccc1)C(=O)N[C@H](C(=O)N[C@@H](CCC(=O)O)C(=O)N[C@@H](Cc1ccncc1)C(=O)N[C@@H](CC(C)C)C(=O)N[C@@H](CC(C)C)C(=O)N[C@@H](CCC(=O)O)C(=O)N[C@H](C(=O)NCC(=O)N1CCC[C@H]1C(=O)N[C@@H](CO)C(=O)N[C@@H](CO)C(=O)NCC(=O)N[C@@H](C)C(=O)N1CCC[C@H]1C(=O)N1CCC[C@H]1C(=O)N1CCC[C@H]1C(=O)N[C@@H](CO)C(N)=O)[C@@H](C)O)C(C)C [Example 41] (H-Y[Aib]EGT[αMeF]ISDYSIALDKK([AEEA-AEEA-γGlu-C20 diacid])HQ[Aib]DFVE[4Pal]LLETGPSSGAPPPS-NH2) | 0.0281 | 1800 | > 5000
